Assay results from ChEMBL document CHEMBL3758137 (Eur J Med Chem, 2016).
pIC50: −log10 of the molar value.

Legend:
[1] = Solubility of compound in HBSS/HEPES buffer at pH 6.8 by nephelometric analysis in presence of 0.1% BSA; type: physicochemical; conditions: HBSS/HEPES buffer with 0.1% BSA
[2] = molecular target: Vascular endothelial growth factor receptor 2 (Homo sapiens, UniProt P35968); test: Inhibition of recombinant human KDR using poly (Glu,Tyr)4:1 as substrate after 60 mins by ELISA
[3] = molecular target: Tyrosine-protein kinase ABL1 (Homo sapiens, UniProt P00519); test: Inhibition of recombinant human ABL using poly (Glu,Tyr)4:1 as substrate after 60 mins by ELISA
[4] = molecular target: Epidermal growth factor receptor (Homo sapiens, UniProt P00533); test: Inhibition of recombinant human EGFR using poly (Glu,Tyr)4:1 as substrate after 60 mins by ELISA
[5] = molecular target: Proto-oncogene tyrosine-protein kinase Src (Homo sapiens, UniProt P12931); test: Inhibition of recombinant human c-Src using poly (Glu,Tyr)4:1 as substrate after 60 mins by ELISA
Ephrin type-A receptor 2 = Ephrin type-A receptor 2 (Homo sapiens, UniProt P29317); test: Inhibition of recombinant human EPH-A2 using poly (Glu,Tyr)4:1 as substrate after 60 mins by ELISA
[6] = Solubility of compound in TRIS buffer by nephelometric analysis in presence of 0.1% BSA; type: physicochemical; conditions: TRIS buffer with 0.1% BSA
[7] = AUC (0 to 8 hrs) in mouse plasma at 10 mg/kg, po; type: ADME, organism-based; parameters: dose 10 mg/kg, time < 8 hr, route oral
[8] = Efflux ratio of apparent permeability from basolateral to apical side over apical to basolateral side in human Caco2 cells after 35 to 95 mins by LC-MS/MS analysis; type: ADME, cell-based; conditions: Caco-2
[9] = molecular target: Platelet-derived growth factor receptor beta (Homo sapiens, UniProt P09619); test: Inhibition of recombinant human PDGFR-beta using poly (Glu,Tyr)4:1 as substrate after 60 mins by ELISA
[10] = molecular target: T1, Tyrosine-protein kinase receptor TYRO3 (Homo sapiens, UniProt Q06418); test: Inhibition of recombinant human TyrO3 using poly (Glu,Tyr)4:1 as substrate after 60 mins by ELISA
T1 sequence (Q06418 whole entry): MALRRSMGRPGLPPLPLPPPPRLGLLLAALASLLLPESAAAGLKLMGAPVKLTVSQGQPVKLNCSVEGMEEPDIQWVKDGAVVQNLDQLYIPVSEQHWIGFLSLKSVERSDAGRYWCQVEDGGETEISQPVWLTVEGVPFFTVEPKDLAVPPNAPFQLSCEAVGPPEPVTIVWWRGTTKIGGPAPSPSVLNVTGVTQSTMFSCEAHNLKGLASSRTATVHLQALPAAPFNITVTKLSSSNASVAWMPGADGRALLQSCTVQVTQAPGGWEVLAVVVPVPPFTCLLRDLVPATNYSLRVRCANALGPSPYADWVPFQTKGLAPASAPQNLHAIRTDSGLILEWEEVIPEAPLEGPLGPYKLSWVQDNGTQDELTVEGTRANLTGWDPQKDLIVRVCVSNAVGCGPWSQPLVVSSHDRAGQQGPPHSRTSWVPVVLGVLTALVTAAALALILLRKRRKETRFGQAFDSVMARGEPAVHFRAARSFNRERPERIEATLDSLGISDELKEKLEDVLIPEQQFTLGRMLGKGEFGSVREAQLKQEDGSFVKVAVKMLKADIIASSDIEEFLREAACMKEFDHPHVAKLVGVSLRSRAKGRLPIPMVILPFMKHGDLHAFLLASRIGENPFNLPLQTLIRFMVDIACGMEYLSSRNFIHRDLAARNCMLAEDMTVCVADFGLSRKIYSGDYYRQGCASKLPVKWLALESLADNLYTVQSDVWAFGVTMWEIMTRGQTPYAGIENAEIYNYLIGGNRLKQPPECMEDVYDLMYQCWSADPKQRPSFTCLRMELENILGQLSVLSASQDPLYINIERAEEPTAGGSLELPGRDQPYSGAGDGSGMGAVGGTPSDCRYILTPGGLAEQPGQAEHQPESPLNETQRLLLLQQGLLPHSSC

[11] = molecular target: T2, Receptor-type tyrosine-protein kinase FLT3 (Homo sapiens, UniProt P36888); test: Inhibition of recombinant human Flt-3 using poly (Glu,Tyr)4:1 as substrate after 60 mins by ELISA
T2 sequence (P36888 whole entry): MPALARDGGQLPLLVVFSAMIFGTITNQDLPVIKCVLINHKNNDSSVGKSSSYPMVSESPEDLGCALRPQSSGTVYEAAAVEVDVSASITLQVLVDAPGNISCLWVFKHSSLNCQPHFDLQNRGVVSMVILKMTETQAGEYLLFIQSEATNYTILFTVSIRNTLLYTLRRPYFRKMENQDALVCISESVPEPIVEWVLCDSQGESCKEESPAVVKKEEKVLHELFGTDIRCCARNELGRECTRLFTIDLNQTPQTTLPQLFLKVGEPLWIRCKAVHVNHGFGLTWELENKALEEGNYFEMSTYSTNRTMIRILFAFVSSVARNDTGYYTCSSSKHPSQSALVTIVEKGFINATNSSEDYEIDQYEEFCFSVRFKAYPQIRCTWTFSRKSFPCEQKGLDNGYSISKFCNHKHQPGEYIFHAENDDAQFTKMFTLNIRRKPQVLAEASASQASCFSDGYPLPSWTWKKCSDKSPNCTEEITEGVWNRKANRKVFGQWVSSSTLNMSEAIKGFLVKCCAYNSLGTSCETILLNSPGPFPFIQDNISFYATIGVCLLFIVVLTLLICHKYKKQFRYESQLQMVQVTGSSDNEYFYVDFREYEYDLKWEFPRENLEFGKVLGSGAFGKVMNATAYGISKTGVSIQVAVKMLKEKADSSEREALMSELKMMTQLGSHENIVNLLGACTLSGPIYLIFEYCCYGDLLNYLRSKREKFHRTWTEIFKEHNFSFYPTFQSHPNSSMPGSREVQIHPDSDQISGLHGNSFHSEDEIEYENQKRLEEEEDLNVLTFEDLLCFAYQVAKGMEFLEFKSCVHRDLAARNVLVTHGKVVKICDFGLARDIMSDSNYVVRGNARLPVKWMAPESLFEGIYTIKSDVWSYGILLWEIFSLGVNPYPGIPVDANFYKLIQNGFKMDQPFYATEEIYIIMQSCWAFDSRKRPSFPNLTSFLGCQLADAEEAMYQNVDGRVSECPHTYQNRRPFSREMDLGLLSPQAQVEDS

[12] = molecular target: Platelet-derived growth factor receptor alpha (Homo sapiens, UniProt P16234); test: Inhibition of recombinant human PDGFR-alpha using poly (Glu,Tyr)4:1 as substrate after 60 mins by ELISA
[13] = Antiproliferative activity against human EBC1 cells after 72 hrs by SRB assay; conditions: EBC-1, 72 h
[14] = molecular target: Receptor tyrosine-protein kinase erbB-2 (Homo sapiens, UniProt P04626); test: Inhibition of recombinant human ErbB2 using poly (Glu,Tyr)4:1 as substrate after 60 mins by ELISA
Mus musculus = test: Toxicity in nude mouse xenografted with human EBC1 cells assessed as body weight at 5 and 40 mg/kg, po qd administered for 21 days; type: organism-based; conditions: in vivo, 504 h

Chain of Ephrin type-A receptor 2 (P29317 whole entry): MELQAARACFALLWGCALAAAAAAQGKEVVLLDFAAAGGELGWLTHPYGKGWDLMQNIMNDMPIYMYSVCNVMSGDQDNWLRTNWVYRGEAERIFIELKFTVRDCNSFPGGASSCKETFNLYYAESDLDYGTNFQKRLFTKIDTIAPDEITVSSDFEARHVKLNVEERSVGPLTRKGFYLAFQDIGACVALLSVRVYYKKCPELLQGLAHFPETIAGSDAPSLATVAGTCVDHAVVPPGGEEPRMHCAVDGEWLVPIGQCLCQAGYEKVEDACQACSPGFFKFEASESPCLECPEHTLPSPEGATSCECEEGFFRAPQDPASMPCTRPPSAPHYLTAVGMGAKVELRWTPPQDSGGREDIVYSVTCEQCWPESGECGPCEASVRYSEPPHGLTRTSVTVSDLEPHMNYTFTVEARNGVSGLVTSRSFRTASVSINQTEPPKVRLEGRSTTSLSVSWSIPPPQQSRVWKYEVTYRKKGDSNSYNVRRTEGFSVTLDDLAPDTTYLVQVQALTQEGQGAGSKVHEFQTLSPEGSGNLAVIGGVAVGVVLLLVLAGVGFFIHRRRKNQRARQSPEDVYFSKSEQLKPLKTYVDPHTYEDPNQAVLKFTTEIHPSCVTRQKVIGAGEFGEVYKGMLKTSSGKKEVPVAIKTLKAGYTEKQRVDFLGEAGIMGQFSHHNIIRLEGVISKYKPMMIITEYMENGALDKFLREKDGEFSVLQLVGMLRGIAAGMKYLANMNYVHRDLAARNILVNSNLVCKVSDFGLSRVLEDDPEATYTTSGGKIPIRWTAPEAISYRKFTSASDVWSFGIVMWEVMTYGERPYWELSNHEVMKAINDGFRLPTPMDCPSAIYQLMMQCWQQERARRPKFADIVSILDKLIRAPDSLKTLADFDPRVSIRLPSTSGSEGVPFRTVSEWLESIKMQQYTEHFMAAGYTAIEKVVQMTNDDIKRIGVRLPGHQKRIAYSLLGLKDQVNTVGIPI
Chain of Platelet-derived growth factor receptor beta (P09619 whole entry): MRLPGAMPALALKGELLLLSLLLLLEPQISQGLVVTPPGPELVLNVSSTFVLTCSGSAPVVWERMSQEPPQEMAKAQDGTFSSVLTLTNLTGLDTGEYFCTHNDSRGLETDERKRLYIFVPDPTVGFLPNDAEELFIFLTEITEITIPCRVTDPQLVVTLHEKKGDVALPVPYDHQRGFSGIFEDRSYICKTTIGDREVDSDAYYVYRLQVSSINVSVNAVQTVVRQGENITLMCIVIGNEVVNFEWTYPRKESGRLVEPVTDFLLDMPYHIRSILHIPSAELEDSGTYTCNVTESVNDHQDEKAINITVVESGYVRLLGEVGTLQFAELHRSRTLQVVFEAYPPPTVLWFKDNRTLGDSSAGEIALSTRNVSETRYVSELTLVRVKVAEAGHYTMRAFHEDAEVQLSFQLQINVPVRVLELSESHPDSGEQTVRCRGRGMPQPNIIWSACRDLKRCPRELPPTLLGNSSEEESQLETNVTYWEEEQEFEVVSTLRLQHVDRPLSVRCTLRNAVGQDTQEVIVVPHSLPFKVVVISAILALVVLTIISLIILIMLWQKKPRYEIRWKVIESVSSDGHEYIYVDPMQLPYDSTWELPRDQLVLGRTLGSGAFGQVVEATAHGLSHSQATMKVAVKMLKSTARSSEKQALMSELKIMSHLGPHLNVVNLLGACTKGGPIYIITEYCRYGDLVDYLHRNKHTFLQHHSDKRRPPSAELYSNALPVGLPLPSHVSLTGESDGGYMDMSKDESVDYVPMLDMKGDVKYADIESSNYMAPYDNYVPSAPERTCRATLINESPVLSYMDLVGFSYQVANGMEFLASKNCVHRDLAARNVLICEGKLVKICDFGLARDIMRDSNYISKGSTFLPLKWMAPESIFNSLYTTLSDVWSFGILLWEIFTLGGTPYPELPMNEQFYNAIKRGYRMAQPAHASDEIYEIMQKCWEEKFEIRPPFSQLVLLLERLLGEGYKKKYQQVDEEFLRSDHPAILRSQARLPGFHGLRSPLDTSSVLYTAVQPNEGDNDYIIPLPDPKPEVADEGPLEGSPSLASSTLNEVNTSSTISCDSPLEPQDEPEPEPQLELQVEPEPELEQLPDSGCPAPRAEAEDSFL
Chain of Epidermal growth factor receptor (P00533 whole entry): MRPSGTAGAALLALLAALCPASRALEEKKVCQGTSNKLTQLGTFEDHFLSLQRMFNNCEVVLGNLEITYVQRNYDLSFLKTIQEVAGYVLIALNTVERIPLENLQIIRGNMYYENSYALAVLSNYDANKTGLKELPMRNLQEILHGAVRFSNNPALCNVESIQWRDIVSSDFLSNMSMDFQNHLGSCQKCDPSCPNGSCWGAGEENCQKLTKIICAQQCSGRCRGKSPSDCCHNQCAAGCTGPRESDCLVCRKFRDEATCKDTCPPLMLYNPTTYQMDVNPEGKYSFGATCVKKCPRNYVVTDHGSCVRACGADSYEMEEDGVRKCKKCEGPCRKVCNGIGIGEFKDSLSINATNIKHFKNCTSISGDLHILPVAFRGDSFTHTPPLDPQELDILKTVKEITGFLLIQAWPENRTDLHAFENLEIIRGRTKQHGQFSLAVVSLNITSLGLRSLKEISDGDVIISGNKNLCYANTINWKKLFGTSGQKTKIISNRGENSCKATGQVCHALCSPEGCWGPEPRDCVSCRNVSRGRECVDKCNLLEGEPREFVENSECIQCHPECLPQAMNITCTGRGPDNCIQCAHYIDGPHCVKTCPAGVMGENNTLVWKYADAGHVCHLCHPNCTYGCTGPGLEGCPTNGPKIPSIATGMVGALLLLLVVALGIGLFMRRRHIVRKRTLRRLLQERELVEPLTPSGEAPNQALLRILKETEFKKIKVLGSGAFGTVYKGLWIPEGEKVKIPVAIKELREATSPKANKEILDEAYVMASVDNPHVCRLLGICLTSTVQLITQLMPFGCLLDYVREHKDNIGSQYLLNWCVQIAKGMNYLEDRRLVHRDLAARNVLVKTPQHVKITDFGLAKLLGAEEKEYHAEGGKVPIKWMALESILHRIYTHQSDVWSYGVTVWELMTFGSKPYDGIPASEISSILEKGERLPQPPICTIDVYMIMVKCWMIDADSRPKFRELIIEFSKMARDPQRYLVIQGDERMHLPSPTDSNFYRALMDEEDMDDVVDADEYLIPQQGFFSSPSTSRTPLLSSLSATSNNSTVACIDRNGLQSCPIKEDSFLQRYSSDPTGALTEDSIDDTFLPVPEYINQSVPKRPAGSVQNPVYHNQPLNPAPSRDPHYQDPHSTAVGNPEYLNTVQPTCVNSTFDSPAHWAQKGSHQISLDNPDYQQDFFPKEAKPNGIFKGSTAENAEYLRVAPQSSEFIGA
Chain of Receptor tyrosine-protein kinase erbB-2 (P04626 whole entry): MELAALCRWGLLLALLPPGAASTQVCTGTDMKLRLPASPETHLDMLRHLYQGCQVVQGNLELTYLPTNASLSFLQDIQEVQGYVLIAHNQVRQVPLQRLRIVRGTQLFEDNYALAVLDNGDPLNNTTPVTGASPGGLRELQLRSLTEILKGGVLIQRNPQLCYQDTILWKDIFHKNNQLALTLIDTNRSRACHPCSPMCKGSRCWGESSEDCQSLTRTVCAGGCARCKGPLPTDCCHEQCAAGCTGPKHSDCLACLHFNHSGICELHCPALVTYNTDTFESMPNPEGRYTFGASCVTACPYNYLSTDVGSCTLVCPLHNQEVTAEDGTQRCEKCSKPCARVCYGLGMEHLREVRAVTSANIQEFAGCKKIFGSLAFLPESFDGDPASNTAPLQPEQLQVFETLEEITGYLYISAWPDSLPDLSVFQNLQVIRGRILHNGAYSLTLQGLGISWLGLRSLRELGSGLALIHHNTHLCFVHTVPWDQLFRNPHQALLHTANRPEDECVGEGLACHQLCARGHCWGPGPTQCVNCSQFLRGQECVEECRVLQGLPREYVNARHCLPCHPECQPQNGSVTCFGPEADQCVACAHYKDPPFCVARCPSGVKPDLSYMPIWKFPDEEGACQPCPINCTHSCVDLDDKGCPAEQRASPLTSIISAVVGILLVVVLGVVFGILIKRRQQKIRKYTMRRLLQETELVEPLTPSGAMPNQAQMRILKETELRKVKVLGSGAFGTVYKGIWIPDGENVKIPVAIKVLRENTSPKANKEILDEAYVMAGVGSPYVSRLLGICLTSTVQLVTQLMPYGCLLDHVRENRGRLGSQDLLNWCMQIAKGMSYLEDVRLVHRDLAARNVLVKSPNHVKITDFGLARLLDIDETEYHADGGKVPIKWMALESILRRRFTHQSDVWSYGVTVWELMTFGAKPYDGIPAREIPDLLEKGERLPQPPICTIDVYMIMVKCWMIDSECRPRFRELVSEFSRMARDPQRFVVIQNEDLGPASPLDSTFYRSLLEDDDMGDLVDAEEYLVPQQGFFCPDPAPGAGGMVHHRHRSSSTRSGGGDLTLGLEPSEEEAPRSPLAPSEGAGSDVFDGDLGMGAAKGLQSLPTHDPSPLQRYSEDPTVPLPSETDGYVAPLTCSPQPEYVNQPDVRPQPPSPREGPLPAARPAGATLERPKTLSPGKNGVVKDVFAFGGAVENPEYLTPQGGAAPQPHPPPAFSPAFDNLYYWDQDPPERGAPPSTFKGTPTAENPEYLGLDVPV
Chain of Proto-oncogene tyrosine-protein kinase Src (P12931 2-536 limits assumed): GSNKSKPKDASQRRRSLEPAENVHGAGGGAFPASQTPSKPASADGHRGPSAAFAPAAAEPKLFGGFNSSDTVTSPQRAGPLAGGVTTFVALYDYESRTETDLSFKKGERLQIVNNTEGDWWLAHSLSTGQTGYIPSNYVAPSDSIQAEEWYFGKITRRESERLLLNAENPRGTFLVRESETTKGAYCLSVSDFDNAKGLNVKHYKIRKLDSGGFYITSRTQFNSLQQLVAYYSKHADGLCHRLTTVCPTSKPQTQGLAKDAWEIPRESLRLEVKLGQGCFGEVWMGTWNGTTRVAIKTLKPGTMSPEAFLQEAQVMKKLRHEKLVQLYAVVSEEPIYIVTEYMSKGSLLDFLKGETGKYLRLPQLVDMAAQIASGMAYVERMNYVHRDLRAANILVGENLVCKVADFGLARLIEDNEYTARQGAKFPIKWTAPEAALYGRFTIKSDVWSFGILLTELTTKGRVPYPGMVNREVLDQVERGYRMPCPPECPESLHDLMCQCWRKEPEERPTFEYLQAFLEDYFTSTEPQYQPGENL

- solubility kinetic [1]: 51 µM
- pIC50 [2]: < 6.00
- pIC50 [3]: < 6.00
- pIC50 [4]: < 6.00
- pIC50 [5]: < 6.00
- pIC50 (Ephrin type-A receptor 2): < 6.00
- solubility kinetic [6]: 51 µM
- AUC(0-t) at 8 h [7]: 1750 ng·h/mL
- efflux ratio [8]: 1.3
- pIC50 [9]: < 6.00
- pIC50 [10]: < 6.00
- pIC50 [11]: < 6.00
- pIC50 [12]: < 6.00
- pIC50 [14]: < 6.00
SMILES: Cn1cc(-c2cnc(Nc3cccc(Cn4nc(-c5cnn(C)c5)ccc4=O)c3)nc2)cn1
- pIC50 [13]: 7.51
- Activity (Mus musculus): Non-toxic
